Patent publication US20230355498A1, “HAIR GROWTH AGENT” (ADJUVANT HOLDINGS CO., LTD., priority 2020, published 2023)

Experiments:
[1] = system: hair shafts from skin samples transplanted in Balb/c nu/nu mice; assay: Hair-diameter-increasing activity: hair shaft diameter of zigzag hairs that completed the second cycle; format: in vivo, mouse
Experimental: Measurement of increase in hair diameter was carried out using hair shafts that had completed the second cycle at the foregoing Exemplary Test 1. Of the hair shafts that were collected, three zigzag hairs were used for measurement of increase in hair diameter. Three locations were selected in regions where diameter was large in the central portions thereof using a square 100 μm on a side. For each of the selected regions, five different locations were further selected, and hair shaft diameter of the zigzag hairs thereat was measured to evaluate the degree to which increase in hair diameter had occurred.

[2] = system: skin samples derived from mouse dorsal body hair skin (C57BL/6N) grafted onto Balb/c nu/nu mice; assay: Hair growth activity: hair shaft length follow-up at transplanted skin samples after topical application; format: in vivo
Experimental: C57BL/6N mice (male) and Balb/c nu/nu mice (female) were purchased from Japan SLC, Inc.(Japan) and bred, and were thereafter made available for the following testing. Note that the testing and breeding of animals complied with pertinent laws, regulations, ordinances, and guidelines, and was performed with the approval of the Experimental Ethics Review Board of the Institute of Physical and Chemical Research.
The following reagents were respectively prepared. • Placebo: 60% aqueous ethanol solution • Working Example 1: 0.05% solution of palmitoyl • dipeptide-5 diaminohydroxybutyrate (3) Preparation of Skin Samples Derived from Mouse Dorsal Body Hair Skin
To collect dorsal body hair skin in the form of anagen stage VI skin 12 to 14 days following depilation, C57BL/6N mice of age 7 to 8 weeks were depilated at locations where dorsal body hair skin was intended to be collected, and were bred for 12 to 14 days. The depilated C57BL/6N mice were thereafter euthanized by cervical dislocation, following which a suitable amount of dorsal body hair skin was collected from the locations at which dorsal body hair skin was intended to be collected.
The collected skin was immersed in DMEM culture medium (hereinafter “DMEM 10”) which contained 10 mM HEPES, 10% fetal bovine serum, and 1% penicillin/streptomycin solution. The collected dorsal body hair skin was grasped with bent-nose curved tweezers and was treated by immersion for 10 seconds in a sterilizing solution. Sterilization treatment was performed by carrying out treatment with 7% povidone iodine solution two times, treatment with PBS (-) three times, and treatment with DMEM 10 two times, in this order, with fresh solutions respectively being used each time. Following sterilization treatment, these were immersed in clean DMEM 10.
Following sterilization treatment, the dorsal body hair skin was cut into pieces and formed into blocks. The transparent connective tissue which adhered to the cutaneous muscle layer of the skin was excised therefrom using curved scissors, and hair groups were cut into rectangular strips in parallel fashion with respect to the direction of the wave of the hair. At this time, these were cut into blocks such that there were 6 rows of hair follicles along the long axis, adjustment having been carried out so that there were 5 rows of hair follicles along the short axis.
The skin samples derived from dorsal body hair skin that were prepared in accordance with the foregoing were grafted onto Balb/c nu/nu mice of age 4 to 6 weeks.
More specifically, mice were anesthetized in the usual way using isoflurane gas. The dorsal area of the mice was then disinfected using 7% povidone iodine solution, following which the mice were made to assume a naturally recumbent posture. In addition, a Mani ophthalmic knife (Mani, Inc.; Japan) was used to pierce the skin at the dorsal area of the mice, the grafts which were formed extending from the epidermal layer of the skin to the subdermal layer. The skin samples derived from dorsal body hair skin were inserted into the grafts formed thereat in such fashion as to cause the hair groups to be directed toward the body surface side of the grafts. Skin sample transplanted depth was adjusted so as to cause the top portion of the hair group to be in a state such that it was exposed at the top portion of the graft. To protect the grafts, Nurseban (registered trademark) (Sunplanet Co., Ltd.; Japan) and surgical tape (3M Japan Limited; Japan) were then used as protective tape to cover the grafts at which the skin samples derived from dorsal body hair skin had been transplanted. The protective tape was removed 5 to 7 days following transplantation, and survival of the transplanted skin samples derived from dorsal body hair skin was determined by visual inspection or digital microscopy (Keyence Corporation: Japan), after which follow-up observation was carried out.
For the first hair cycle, 60% aqueous ethanol solution was applied thereto as placebo. […]

[3] = system: human dermal papilla cells; assay: Dermal papilla cell growth promotion (Cell Count Reagent SF, absorbance 450 nm); format: cell-based; conditions: FIG. 3
Experimental: Human dermal papilla cells (Catalog No. CA602t05a; derived from person; Toyobo Co., Ltd. (Japan)) were purchased, testing and evaluation being carried out with maintenance and culture of cells being performed as described in the protocol.
As drugs for testing, drug solutions consisting of culture medium for human dermal papilla cells containing palmitoyl dipeptide-5 diaminohydroxybutyrate in the following respective concentrations (final concentrations) were prepared, and these were used. • Working Example 1: 11.54709375 μM • Working Example 2: 23.0941875 μM • Working Example 3: 46.188375 μM • Working Example 4: 92.37675 μM • Working Example 5: 184.7535 μM • Working Example 6: 369.507 μM
A 96-well plate was seeded with human dermal papilla cells so as to obtain 1×10^3 thereof per well. […] After this had been added thereto, absorbance (measurement wavelength 450 nm; reference wavelength 620 nm) of the culture supernatant was measured. Based on these values, the cell growth rates at the respective wells were calculated, at which time the cell growth rate of the control group at which nothing had been added was taken to be 100%.

[4] = system: FGF-7 gene; assay: FGF-7 gene expression in human dermal papilla cells (real-time PCR, GAPDH internal standard); format: cell-based; conditions: 24 hours, FIG. 4
Experimental: Testing and evaluation were carried out with maintenance and culture of human dermal papilla cells being performed in the same manner as at Exemplary Test 3, above.
As drugs for testing, drug solutions of the following respective concentrations (final concentrations) were prepared and used. • Comparative Example 1: 100 μM adenosine • Working Example 1: 1 μM palmitoyl dipeptide-5 diaminohydroxybutyrate • Working Example 2: 10 μM palmitoyl dipeptide-5 diaminohydroxybutyrate • Working Example 3: 300 μM palmitoyl dipeptide-5 diaminohydroxybutyrate
A 24-well plate was seeded with human dermal papilla cells so as to obtain 6×10^3 thereof per well. […]
Following culture, total RNA was extracted from the respective wells and was recovered, and this was reverse-transcribed into cDNA. […] The GAPDH gene was used as an internal standard, the amount of FGF-7 gene expression being calculated relative to the negative control group.
A FastGene RNA Basic Kit (Catalog No. FG-80250; Nippon Genetics Co., Ltd. (Japan)) was used to recover total RNA from cells. […] Concentration of the recovered RNA was measured using a NanoDrop Lite (Catalog No. ND-LITE; Thermo Fisher Scientific K.K.), and this was stored at −80° C. until the following cDNA creation procedure.
A FastGene scriptase II cDNA synthesis 5× Ready Mix (Catalog No. NE-LS641; Nippon Genetics Co., Ltd. (Japan)) was used to synthesize cDNA. […]

[5] = 0.05% solution, second hair cycle vs placebo applied in first hair cycle
[6] = solution containing 0.05%, applied at transplanted skin samples in mice

For “palmitoyl dipeptide-5 diaminohydroxybutyrate”, the “Hair diameter as compared with 60% aqueous ethanol control (in words)” value ([1]; hair shafts which had completed the second cycle) was “clear increase in hair diameter”, the “Hair shaft diameter: Percent increase (%)” value ([1]; second hair cycle vs placebo applied in first hair cycle) was 124% and the “Hair shaft diameter (μm)” value ([1]; zigzag hairs, second hair cycle, 0.05% solution, placebo (first hair cycle) 18.5 ± 3.1, ** p<0.01) was 22.9 ± 2.5 ** μm. For the same substance, the “Hair shaft elongation rate (mm/day)” value ([2]; 0.05% solution applied topically, second hair cycle, placebo (first hair cycle) 0.38 ± 0.06) was 0.39 ± 0.06 mm/day, the “Maximum hair shaft length (mm)” value ([2]; 0.05% solution applied topically, second hair cycle, placebo (first hair cycle) 4.9 ± 0.4, * p<0.05) was 5.2 ± 0.2 * mm and the “Hair shaft elongation rate: Percent change relative to reference data” value [2, 5] was 100.63%. The “Maximum hair shaft length: Percent change relative to reference data” value [2, 5] was 105.19%, the “Hair growth activity (in words)” value ([2]; solution containing 0.05%) was “exhibit hair growth activity” and the “Hair shaft elongation rate as compared with reference data (in words)” value [2, 6] was “improvement in hair shaft elongation rate”. The “Maximum hair shaft length as compared with reference data (in words)” value [2, 6] was “significant improvement”, the “Cell growth rate as compared with control group at which nothing had been added (control = 100%)” value ([3]; 11.54709375 to 369.507 μM (Working Examples 1 to 6), 24, 48 or 72 hours) was “increase in cell growth rate” and the “Concentration dependence of cell growth” value ([3]; 11.54709375 to 369.507 μM, peak at concentration of Working Example 5 (184.7535 μM)) was “induced cell growth in concentration-dependent fashion”. The “Amount of expression of the FGF-7 gene as compared with control group at which nothing had been added” value ([4]; 1 μM and 10 μM (Working Examples 1 and 2)) was “increase in the amount of expression of the FGF-7 gene” and the “Amount of expression of the FGF-7 gene compared with 100 μM adenosine (Comparative Example 1)” value ([4]; increasing the amount added) was “greater than that which was produced as a result of action of adenosine”.
